Patent US8980276B2, “Conjugates for the prevention or treatment of nicotine addiction” (Pfizer Inc, priority 2010, dated 2015)

Tests used:
[1] = Dissolution of hapten-spacer conjugate for coupling; format: physicochemical; details: at 50 mg per ml
Procedure: a) The hapten-spacer conjugates were obtained as a yellow oil and stored at 2 to 8° C. until the day of use (for up to one week, longer storage was at −20° C.). […] The result was a yellow-brown suspension or solution.

anti-nicotine antibodies = test: Competition ELISA to determine specificity of antibodies induced by anti-nicotine vaccines; format: binding, mouse; details: plasma of mice immunized with conjugates of examples 1 and 2; inhibitors diluted serially from 20,000 μM

Structure (SMILES): CN1CCC[C@H]1c1cncc(CCCNC(=O)CCCCCCN)c1 [Preparation 33, 7-amino-N-(3-{5-[(2S)-1-methylpyrrolidin-2-yl]pyridin-3-yl}propyl) heptanamide]
- solubility in deionised water [1]: did not dissolve fully in deionised water

Structure (SMILES): CN1C(=O)CC[C@H]1c1cccnc1 [cotinine]
- inhibition of binding of anti-nicotine antibodies to nicotine-coated ELISA plates by added inhibitor (anti-nicotine antibodies): no such effect is observed

Structure (SMILES): CN1CCCC1c1cccnc1 (stereo not shown) [nicotine]
- inhibition of binding of anti-nicotine antibodies to nicotine-coated ELISA plates by added inhibitor (anti-nicotine antibodies): dose-dependent inhibition of binding

Structure (SMILES): c1cnc2cc3c(cc2n1)[C@@H]1CNC[C@H]3C1 [varenicline]
- inhibition of binding of anti-nicotine antibodies to nicotine-coated ELISA plates by added inhibitor (anti-nicotine antibodies): no such effect is observed
